The nature of this assay: Binding affinity to NL63-CoV main protease by FRET assay. Set-up: species or system Human coronavirus NL63.

The Ki is a measure of affinity in units of concentration, obtained from inhibition or displacement. High values mean a looser hold on the target, low ones a stronger hold on the target. `CC(C)(C)[C@H](NC(=O)C(F)(F)F)C(=O)N1C[C@H]2[C@@H]([C@H]1C(=O)N[C@H](C#N)C[C@@H]1CCNC1=O)C2(C)C` returned a Ki of 226 nM.

Source of the values: ChEMBL document CHEMBL5137053 (J Med Chem, 2022).
